Experimental data from ChEMBL document CHEMBL1909589, “5-(2'-Pyridyl)-2-aminothiazoles: alkyl amino sulfonamides and sulfamides as potent NPY(5) antagonists” (Bioorg Med Chem Lett, 2011).

What was measured:
[1] = tested on: Liver microsomes; assay: Intrinsic clearance in human liver microsomes; format: ADME, Microsome
[2] = tested on: Liver microsomes; assay: Intrinsic clearance in rat liver microsomes; format: ADME, Microsome
[3] = Absolute oral bioavailability in Sprague-Dawley rat at 2 mg/kg by HPLC method; format: ADME, organism-based; settings: in vivo
[4] = Plasma clearance in Sprague-Dawley rat at 2 mg/kg, po and 1 mg/kg, iv by HPLC method; format: ADME, organism-based
[5] = Volume of distribution at steady state in Sprague-Dawley rat at 2 mg/kg, po and 1 mg/kg, iv by HPLC method; format: ADME, organism-based; settings: in vivo, read-out: Vdss
[6] = Drug uptake in Sprague-Dawley rat brain at 10 mg/kg, po after 4 hrs; format: ADME, organism-based; design: dose 10 mg/kg, route oral; settings: read-out: Drug uptake
[7] = Plasma concentration in Sprague-Dawley rat at 3 mg/kg, po after 1 hr; format: ADME, organism-based; design: dose 3 mg/kg, route oral
[8] = Drug uptake in Sprague-Dawley rat brain at 3 mg/kg, po after 1 hr; format: ADME, organism-based; design: dose 3 mg/kg, route oral; settings: read-out: Drug uptake
[9] = Plasma concentration in Sprague-Dawley rat at 10 mg/kg, po after 4 hrs; format: ADME, organism-based; design: dose 10 mg/kg, route oral

| CL [1] [L/min] | CL [2] [mL/min] | SMILES | further results |
| --- | --- | --- | --- |
| 2.9 | 44 | O=S(=O)(NCCCCCNc1nc(-c2ccccn2)cs1)N1CCOCC1 |  |
| 27 | 290 | CCN(CC)S(=O)(=O)NCCCCCNc1nc(-c2ccccn2)cs1 |  |
| 2.2 | 72 | CC(C)S(=O)(=O)NCCCCCNc1nc(-c2ccccn2)cs1 | bioavailability [3]: 49%; clearance [4]: 383 mL/min/kg; Vd [5]: 22 L/kg |
| 11 | 74 | CC1CN(S(=O)(=O)NCCCCCNc2nc(-c3ccccn3)cs2)CC(C)O1 (stereo not given) |  |
| 27 |  | Cc1nc(C)c(S(=O)(=O)NCCCCCNc2nc(-c3ccccn3)cs2)s1 |  |
| 16 | 150 | COCCN(CCOC)S(=O)(=O)NCCCCCNc1nc(-c2ccccn2)cs1 |  |
| 2.5 | 40 | CS(=O)(=O)NC[C@H]1CC[C@H](Nc2nc3c(s2)CCSc2ccccc2-3)CC1 |  |
| 5.4 | 87 | CC(C)S(=O)(=O)NCCCCCNc1nc(-c2ccsc2)cs1 |  |
| 2.5 | 120 | CN1CCN(S(=O)(=O)NCCCCCNc2nc(-c3ccccn3)cs2)CC1 |  |
| 1.8 | 110 | CN(C)S(=O)(=O)NCCCCCNc1nc(-c2ccccn2)cs1 | concentration at 4 h [6]: 12 ng/g; bioavailability [3]: 26%; concentration at 1 h [7]: 12 ng/mL; clearance [4]: 140 mL/min/kg; concentration at 1 h [8]: 4 ng/g; Vd [5]: 47 L/kg; concentration at 4 h [9]: 24 ng/mL |
| 1.1 |  | CC(C)S(=O)(=O)NCCOCCNc1nc(-c2ccccn2)cs1 |  |
